Test results published in patent publication US20250177555A1 (priority 2022, published 2025).

Assays:
[1] = system: CNV-G pseudotyped lentiviral infection; assay type: cell-based
[2] = system: CNV-G gectosome cell entry; assay type: cell-based, human; settings: read-out: IC50, CNV-G gectosome inhibition
[3] = system: VSV-G gectosome uptake, 293ColorSwitch cells; assay type: cell-based; settings: Cre cargo
[4] = system: CNV-G gectosome uptake, 293ColorSwitch cells; assay type: cell-based
BlaM-Vpr-GFP1-10 = assay: cell-based or functional assay

With `C/C1=C/C(=O)O[C@@H]2C[C@@H](CC[C@H](C)/C=C\CC1)O[C@@](O)([C@@H]1CSC(=O)N1)C2` [Latrunculin B] the “effect on CNV-G pseudotyped lentiviral infection” value [1] was “effect of Latrunculin B on CNV-G” and the IC50 [2] was 1.96 µM.

`CCCCCCCCCCCCCCCCOP(=O)([O-])OCC[N+](C)(C)C` [Milterfosine] was tested, and the “inhibition of VSV-G gectosome uptake” value [3] was “NOT VSV-G gectosome uptake” and the “inhibition of CNV-G gectosome uptake” value [4] was “specifically inhibit”.

`COc1ccc2c(c1)CC[C@@H]1[C@@H]2CC[C@]2(C)[C@@H](NCCCCCCN3C(=O)C=CC3=O)CC[C@@H]12` [U-73122] showed an IC50 [2] of 3.03 µM.

Work on CNV-G-EGFP (from UniProt P13180 23-530) yielded an efficiency of cargo transfer against the CNV-G-GFP11 and BlaM-GFP1-10 pair (BlaM-Vpr-GFP1-10) of 100 fold less.
